Laboratory results published in paper PMC9856672, “SGC-CAMKK2-1: A Chemical Probe for CAMKK2” (Cells, 2023).

Columns and labels:
PRKR = target: T1, PRKR (Homo sapiens, UniProt P19525); test: DiscoverX KINOMEscan binding assay at 1 μM, PRKR; conditions: PRKR (EIF2AK2); Compound Concentration 1000 nM; read-out: Percent Control
T1 construct: purchased Eurofins DiscoverX KINOMEscan
From the text: (§1) Supplement cells-12-00287-s001.zip/File S2. KinomeScan data for the CAMKK2 probe and negative control.xlsx, sheet "SGC-CAMKK2-1" | column: Percent Control

PIP5K2B = target: T2, PIP5K2B (Homo sapiens, UniProt P78356); test: DiscoverX KINOMEscan binding assay at 1 μM, PIP5K2B; conditions: PIP5K2B (PIP4K2B); Compound Concentration 1000 nM; read-out: Percent Control
T2 construct: purchased Eurofins DiscoverX KINOMEscan
From the text: as §1

IKK-alpha = target: T3, IKK-alpha (Homo sapiens, UniProt O15111); test: KINOMEscan 1 μM, IKK-alpha; format: binding; conditions: 1000 nM; Entrez CHUK; read-out: Percent Control
T3 construct: purchased Eurofins DiscoverX KINOMEscan
From the text: as §1

CAMK2B = target: T4, CAMK2B (Homo sapiens, UniProt Q13554); test: KINOMEscan 1 μM, CAMK2B; format: binding; conditions: 1000 nM; Entrez CAMK2B; read-out: Percent Control
T4 construct: purchased Eurofins DiscoverX KINOMEscan
From the text: as §1

GSK3A = target: T5, GSK3A (Homo sapiens, UniProt P49840); test: KINOMEscan 1 μM, GSK3A; format: binding; conditions: 1000 nM; Entrez GSK3A; read-out: Percent Control
T5 construct: purchased Eurofins DiscoverX KINOMEscan
From the text: as §1

PFPK5(P.falciparum) = target: T6, PFPK5(P.falciparum) (Plasmodium falciparum, UniProt P61075); test: DiscoverX KINOMEscan binding assay at 1 μM, PFPK5(P.falciparum); conditions: PFPK5(P.falciparum) (MAL13P1.279); Compound Concentration 1000 nM; read-out: Percent Control
T6 construct: purchased Eurofins DiscoverX KINOMEscan
T6 sequence (P61075 whole entry): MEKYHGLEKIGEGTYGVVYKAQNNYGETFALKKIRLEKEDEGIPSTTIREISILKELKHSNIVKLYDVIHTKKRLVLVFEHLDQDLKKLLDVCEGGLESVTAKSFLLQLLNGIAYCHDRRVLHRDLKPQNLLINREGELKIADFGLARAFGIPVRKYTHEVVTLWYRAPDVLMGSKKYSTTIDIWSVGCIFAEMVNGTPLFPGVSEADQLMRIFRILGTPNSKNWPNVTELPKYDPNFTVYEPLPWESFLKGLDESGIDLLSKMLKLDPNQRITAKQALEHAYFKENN
From the text: as §1

PIK3CA(Q546K) = target: T7, PIK3CA(Q546K) (Homo sapiens, UniProt P42336, Q546K); test: DiscoverX KINOMEscan binding assay at 1 μM, PIK3CA(Q546K); conditions: Compound Concentration 1000 nM, read-out: Percent Control
T7 construct: purchased Eurofins DiscoverX KINOMEscan
From the text: as §1

PAK7 = target: T8, PAK7 (Homo sapiens, UniProt Q9P286); test: DiscoverX KINOMEscan binding assay at 1 μM, PAK7; conditions: Compound Concentration 1000 nM, read-out: Percent Control
T8 construct: purchased Eurofins DiscoverX KINOMEscan
From the text: as §1

MST3 = target: T9, MST3 (Homo sapiens, UniProt Q9Y6E0); test: KINOMEscan 1 μM, MST3; format: binding; conditions: 1000 nM; Entrez STK24; read-out: Percent Control
T9 construct: purchased Eurofins DiscoverX KINOMEscan
From the text: as §1

IRAK1 = target: T10, IRAK1 (Homo sapiens, UniProt P51617); test: KINOMEscan 1 μM, IRAK1; format: binding; conditions: 1000 nM; Entrez IRAK1; read-out: Percent Control
T10 construct: purchased Eurofins DiscoverX KINOMEscan
From the text: as §1

MYLK4 = target: T11, MYLK4 (Homo sapiens, UniProt Q86YV6); test: KINOMEscan 1 μM, MYLK4; format: binding; conditions: 1000 nM; Entrez MYLK4; read-out: Percent Control
T11 construct: purchased Eurofins DiscoverX KINOMEscan
From the text: as §1

PDGFRA = target: T12, PDGFRA (Homo sapiens, UniProt P16234); test: DiscoverX KINOMEscan binding assay at 1 μM, PDGFRA; conditions: Compound Concentration 1000 nM, read-out: Percent Control
T12 construct: purchased Eurofins DiscoverX KINOMEscan
T12 sequence (P16234 24-1089): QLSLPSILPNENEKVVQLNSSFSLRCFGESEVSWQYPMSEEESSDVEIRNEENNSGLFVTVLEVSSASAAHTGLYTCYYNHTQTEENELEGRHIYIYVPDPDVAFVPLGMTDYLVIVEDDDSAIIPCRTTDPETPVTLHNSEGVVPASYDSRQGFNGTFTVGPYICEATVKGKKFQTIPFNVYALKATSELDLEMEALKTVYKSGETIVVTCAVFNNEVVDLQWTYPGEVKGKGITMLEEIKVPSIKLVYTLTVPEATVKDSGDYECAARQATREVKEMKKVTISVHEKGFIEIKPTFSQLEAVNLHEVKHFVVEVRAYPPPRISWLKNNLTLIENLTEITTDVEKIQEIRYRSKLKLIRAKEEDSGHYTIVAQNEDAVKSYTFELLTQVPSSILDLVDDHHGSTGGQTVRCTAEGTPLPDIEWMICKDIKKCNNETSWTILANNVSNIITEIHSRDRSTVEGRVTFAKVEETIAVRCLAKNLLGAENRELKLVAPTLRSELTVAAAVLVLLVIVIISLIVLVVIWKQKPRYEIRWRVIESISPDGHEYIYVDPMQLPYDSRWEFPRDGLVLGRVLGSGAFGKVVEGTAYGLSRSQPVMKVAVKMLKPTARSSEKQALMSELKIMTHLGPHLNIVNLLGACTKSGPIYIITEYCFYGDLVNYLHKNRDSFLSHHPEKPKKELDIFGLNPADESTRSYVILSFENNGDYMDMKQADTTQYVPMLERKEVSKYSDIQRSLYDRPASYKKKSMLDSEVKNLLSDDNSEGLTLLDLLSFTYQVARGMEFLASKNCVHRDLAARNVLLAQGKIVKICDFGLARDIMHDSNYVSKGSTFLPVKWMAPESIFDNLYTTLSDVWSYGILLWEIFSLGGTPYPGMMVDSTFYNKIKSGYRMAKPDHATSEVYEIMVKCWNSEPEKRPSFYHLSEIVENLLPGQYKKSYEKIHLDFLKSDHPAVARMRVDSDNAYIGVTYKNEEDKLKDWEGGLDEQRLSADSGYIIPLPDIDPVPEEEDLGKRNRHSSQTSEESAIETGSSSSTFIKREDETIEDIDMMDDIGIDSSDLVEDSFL
From the text: as §1

MARK3 = target: T13, MARK3 (Homo sapiens, UniProt P27448); test: KINOMEscan 1 μM, MARK3; format: binding; conditions: 1000 nM; Entrez MARK3; read-out: Percent Control
T13 construct: purchased Eurofins DiscoverX KINOMEscan
T13 sequence (P27448 whole entry): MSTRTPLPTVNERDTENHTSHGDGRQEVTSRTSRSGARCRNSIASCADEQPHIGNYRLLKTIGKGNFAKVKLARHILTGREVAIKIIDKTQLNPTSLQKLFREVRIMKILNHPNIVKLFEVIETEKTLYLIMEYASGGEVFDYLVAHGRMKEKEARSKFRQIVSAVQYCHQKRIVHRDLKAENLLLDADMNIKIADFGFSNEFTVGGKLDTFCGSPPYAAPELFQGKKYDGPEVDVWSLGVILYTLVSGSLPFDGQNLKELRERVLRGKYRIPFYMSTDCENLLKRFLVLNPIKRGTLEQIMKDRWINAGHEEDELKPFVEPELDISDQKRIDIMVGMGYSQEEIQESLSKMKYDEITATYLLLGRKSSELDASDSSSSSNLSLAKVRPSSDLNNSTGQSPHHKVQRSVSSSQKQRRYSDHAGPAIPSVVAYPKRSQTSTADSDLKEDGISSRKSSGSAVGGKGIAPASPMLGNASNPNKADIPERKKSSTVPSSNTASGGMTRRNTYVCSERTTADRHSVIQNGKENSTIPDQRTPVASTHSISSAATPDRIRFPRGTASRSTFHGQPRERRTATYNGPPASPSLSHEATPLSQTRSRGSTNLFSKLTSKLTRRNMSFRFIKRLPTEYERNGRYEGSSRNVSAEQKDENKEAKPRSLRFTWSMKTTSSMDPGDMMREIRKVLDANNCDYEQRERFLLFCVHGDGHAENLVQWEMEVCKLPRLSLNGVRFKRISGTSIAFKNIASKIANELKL
From the text: as §1

EPHA4 = target: T14, EPHA4 (Homo sapiens, UniProt P54764); test: KINOMEscan 1 μM, EPHA4; format: binding; conditions: 1000 nM; Entrez EPHA4; read-out: Percent Control
T14 construct: purchased Eurofins DiscoverX KINOMEscan
From the text: as §1

RIPK1 = target: T15, RIPK1 (Homo sapiens, UniProt Q13546); test: KINOMEscan 1 μM, RIPK1; format: binding; conditions: 1000 nM; Entrez RIPK1; read-out: Percent Control
T15 construct: purchased Eurofins DiscoverX KINOMEscan
From the text: as §1

ADCK4 = target: T16, ADCK4 (Homo sapiens, UniProt Q96D53); test: KINOMEscan 1 μM, ADCK4; format: binding; conditions: 1000 nM; Entrez ADCK4; read-out: Percent Control
T16 construct: purchased Eurofins DiscoverX KINOMEscan
T16 sequence (Q96D53 whole entry): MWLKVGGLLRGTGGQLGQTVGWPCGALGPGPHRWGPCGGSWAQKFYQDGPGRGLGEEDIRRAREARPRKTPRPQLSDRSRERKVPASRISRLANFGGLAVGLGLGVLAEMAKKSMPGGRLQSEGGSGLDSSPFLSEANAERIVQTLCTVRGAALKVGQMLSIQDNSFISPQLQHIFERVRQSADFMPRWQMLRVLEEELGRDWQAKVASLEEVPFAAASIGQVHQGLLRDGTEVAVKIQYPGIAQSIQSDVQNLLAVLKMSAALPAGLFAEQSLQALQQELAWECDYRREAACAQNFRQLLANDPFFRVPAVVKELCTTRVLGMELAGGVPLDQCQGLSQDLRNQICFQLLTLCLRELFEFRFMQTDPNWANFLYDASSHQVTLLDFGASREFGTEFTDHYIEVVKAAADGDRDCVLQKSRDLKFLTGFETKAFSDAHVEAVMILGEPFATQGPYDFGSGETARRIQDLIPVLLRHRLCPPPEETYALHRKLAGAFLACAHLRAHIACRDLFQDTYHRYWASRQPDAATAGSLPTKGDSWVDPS
From the text: as §1

STK33 = target: T17, STK33 (Homo sapiens, UniProt Q9BYT3); test: KINOMEscan 1 μM, STK33; format: binding; conditions: 1000 nM; Entrez STK33; read-out: Percent Control
T17 construct: purchased Eurofins DiscoverX KINOMEscan
From the text: as §1

PRKD3 = target: T18, PRKD3 (Homo sapiens, UniProt O94806); test: KINOMEscan 1 μM, PRKD3; format: binding; conditions: 1000 nM; Entrez PRKD3; read-out: Percent Control
T18 construct: purchased Eurofins DiscoverX KINOMEscan
From the text: as §1

BMPR1A = target: T19, BMPR1A (Homo sapiens, UniProt P36894); test: KINOMEscan 1 μM, BMPR1A; format: binding; conditions: 1000 nM; Entrez BMPR1A; read-out: Percent Control
T19 construct: purchased Eurofins DiscoverX KINOMEscan
From the text: as §1

ABL1-phosphorylated = target: T20, ABL1-phosphorylated (Homo sapiens, UniProt P00519); test: KINOMEscan 1 μM, ABL1-phosphorylated; format: binding; conditions: 1000 nM; Entrez ABL1; read-out: Percent Control
T20 construct: purchased Eurofins DiscoverX KINOMEscan
From the text: as §1

CAMK2A = target: T21, CAMK2A (Homo sapiens, UniProt Q9UQM7); test: KINOMEscan 1 μM, CAMK2A; format: binding; conditions: 1000 nM; Entrez CAMK2A; read-out: Percent Control
T21 construct: purchased Eurofins DiscoverX KINOMEscan
From the text: as §1

PAK3 = target: T22, PAK3 (Homo sapiens, UniProt O75914); test: DiscoverX KINOMEscan binding assay at 1 μM, PAK3; conditions: Compound Concentration 1000 nM, read-out: Percent Control
T22 construct: purchased Eurofins DiscoverX KINOMEscan
T22 sequence (O75914 whole entry): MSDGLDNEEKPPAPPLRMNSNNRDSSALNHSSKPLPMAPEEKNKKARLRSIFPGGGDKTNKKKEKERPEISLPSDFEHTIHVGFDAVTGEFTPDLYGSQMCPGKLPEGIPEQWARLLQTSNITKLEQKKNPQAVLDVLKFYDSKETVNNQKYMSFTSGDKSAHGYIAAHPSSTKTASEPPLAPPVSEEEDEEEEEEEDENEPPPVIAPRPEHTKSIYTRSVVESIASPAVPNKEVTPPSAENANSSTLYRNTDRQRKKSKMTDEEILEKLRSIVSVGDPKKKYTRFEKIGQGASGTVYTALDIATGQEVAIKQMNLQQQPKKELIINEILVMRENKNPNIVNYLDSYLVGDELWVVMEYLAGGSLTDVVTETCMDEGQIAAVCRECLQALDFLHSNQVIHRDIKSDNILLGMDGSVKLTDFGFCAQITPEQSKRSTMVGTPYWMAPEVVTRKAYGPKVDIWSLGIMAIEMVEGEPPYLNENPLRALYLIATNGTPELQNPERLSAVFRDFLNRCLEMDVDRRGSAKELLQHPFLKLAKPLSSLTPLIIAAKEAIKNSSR
From the text: as §1

ANKK1 = target: T23, ANKK1 (Homo sapiens, UniProt Q8NFD2); test: KINOMEscan at 1 μM, ANKK1; format: binding; conditions: 1000 nM, read-out: Percent Control
T23 construct: purchased Eurofins DiscoverX KINOMEscan
From the text: (§2) Supplement cells-12-00287-s001.zip/File S2. KinomeScan data for the CAMKK2 probe and negative control.xlsx, sheet "SGC-CAMKK2-1N" | column: Percent Control

ABL1-nonphosphorylated = target: T24, ABL1-nonphosphorylated (Homo sapiens, UniProt P00519); test: KINOMEscan at 1 μM, ABL1-nonphosphorylated; format: binding; conditions: 1000 nM, read-out: Percent Control
T24 construct: purchased Eurofins DiscoverX KINOMEscan
From the text: as §2

MET(Y1235D) = target: T25, MET(Y1235D) (Homo sapiens, UniProt P08581, Y1235D); test: KINOMEscan at 1 μM, MET(Y1235D); format: binding; conditions: 1000 nM, read-out: Percent Control
T25 construct: purchased Eurofins DiscoverX KINOMEscan
From the text: as §2

IGF1R = target: T26, IGF1R (Homo sapiens, UniProt P08069); test: KINOMEscan binding assay at 1 μM, IGF1R; conditions: Compound Concentration 1000 nM; read-out: Percent Control
T26 construct: purchased Eurofins DiscoverX KINOMEscan
From the text: as §2

BIKE = target: T27, BIKE (Homo sapiens, UniProt Q9NSY1); test: KINOMEscan at 1 μM, BIKE; format: binding; conditions: 1000 nM, read-out: Percent Control
T27 construct: purchased Eurofins DiscoverX KINOMEscan
T27 sequence (Q9NSY1 whole entry): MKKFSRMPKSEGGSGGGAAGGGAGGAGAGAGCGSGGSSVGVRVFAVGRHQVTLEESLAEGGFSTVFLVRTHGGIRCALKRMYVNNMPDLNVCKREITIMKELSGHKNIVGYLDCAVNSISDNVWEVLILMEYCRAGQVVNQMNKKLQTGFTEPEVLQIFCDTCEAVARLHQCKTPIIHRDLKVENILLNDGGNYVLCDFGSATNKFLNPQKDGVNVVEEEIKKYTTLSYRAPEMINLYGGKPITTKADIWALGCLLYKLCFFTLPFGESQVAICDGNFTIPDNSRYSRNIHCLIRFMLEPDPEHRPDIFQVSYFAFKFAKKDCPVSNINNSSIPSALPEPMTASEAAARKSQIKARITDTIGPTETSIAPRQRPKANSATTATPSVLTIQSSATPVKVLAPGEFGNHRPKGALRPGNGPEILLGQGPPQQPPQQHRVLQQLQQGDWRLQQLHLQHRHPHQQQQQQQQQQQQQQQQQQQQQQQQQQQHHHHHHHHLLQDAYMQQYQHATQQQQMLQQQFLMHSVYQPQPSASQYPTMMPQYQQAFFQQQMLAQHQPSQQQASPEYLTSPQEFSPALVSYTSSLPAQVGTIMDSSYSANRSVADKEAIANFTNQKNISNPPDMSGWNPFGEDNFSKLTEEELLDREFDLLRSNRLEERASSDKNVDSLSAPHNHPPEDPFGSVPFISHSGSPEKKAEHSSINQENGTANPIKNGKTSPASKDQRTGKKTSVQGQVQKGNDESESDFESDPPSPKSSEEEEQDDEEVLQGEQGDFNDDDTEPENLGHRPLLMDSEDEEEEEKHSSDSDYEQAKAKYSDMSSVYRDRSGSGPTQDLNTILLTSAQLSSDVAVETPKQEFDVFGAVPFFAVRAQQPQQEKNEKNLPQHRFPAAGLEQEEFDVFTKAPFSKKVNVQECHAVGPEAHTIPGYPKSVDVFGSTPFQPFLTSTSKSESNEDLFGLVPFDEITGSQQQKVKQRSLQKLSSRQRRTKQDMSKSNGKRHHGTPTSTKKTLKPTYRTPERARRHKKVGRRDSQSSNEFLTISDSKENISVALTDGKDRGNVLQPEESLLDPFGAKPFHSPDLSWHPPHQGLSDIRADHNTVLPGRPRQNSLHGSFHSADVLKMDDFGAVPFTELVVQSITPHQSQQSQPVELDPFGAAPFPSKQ
From the text: as §2

CDK4 = target: T28, CDK4 (Homo sapiens, UniProt P11802); test: KINOMEscan at 1 μM, CDK4; format: binding; conditions: 1000 nM, read-out: Percent Control
T28 construct: purchased Eurofins DiscoverX KINOMEscan
From the text: as §2

MAK = target: T29, MAK (Homo sapiens, UniProt P20794); test: KINOMEscan at 1 μM, MAK; format: binding; conditions: 1000 nM, read-out: Percent Control
T29 construct: purchased Eurofins DiscoverX KINOMEscan
T29 sequence (P20794 whole entry): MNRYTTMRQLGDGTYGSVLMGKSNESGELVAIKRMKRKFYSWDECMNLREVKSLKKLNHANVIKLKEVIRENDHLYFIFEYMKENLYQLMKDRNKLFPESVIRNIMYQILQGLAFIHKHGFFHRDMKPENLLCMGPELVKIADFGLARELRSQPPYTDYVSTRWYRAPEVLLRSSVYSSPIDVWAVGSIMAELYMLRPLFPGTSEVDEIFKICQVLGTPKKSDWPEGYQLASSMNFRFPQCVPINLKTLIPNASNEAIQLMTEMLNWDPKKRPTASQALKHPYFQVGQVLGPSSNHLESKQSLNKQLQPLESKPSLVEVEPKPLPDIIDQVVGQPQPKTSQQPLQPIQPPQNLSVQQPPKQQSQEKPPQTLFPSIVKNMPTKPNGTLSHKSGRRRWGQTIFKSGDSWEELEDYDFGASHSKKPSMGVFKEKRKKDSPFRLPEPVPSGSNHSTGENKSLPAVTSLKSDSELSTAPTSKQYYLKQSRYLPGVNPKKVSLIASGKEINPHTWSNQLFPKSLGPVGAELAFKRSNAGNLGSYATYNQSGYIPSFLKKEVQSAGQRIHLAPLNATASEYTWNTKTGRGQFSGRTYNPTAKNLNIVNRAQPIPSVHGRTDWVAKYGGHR
From the text: as §2

MKNK2 = target: T30, MKNK2 (Homo sapiens, UniProt Q9HBH9); test: KINOMEscan at 1 μM, MKNK2; format: binding; conditions: 1000 nM, read-out: Percent Control
T30 construct: purchased Eurofins DiscoverX KINOMEscan
From the text: as §2

VPS34 = target: T31, VPS34 (Homo sapiens, UniProt Q8NEB9); test: KINOMEscan at 1 μM, VPS34; format: binding; conditions: 1000 nM, read-out: Percent Control
T31 construct: purchased Eurofins DiscoverX KINOMEscan
From the text: as §2

ALK(L1196M) = target: T32, ALK(L1196M) (Homo sapiens, UniProt Q9UM73, L1196M); test: KINOMEscan at 1 μM, ALK(L1196M); format: binding; conditions: 1000 nM, read-out: Percent Control
T32 construct: purchased Eurofins DiscoverX KINOMEscan
From the text: as §2

SMILES: Cc1cccc(-c2cnc3occ(-c4ccc(C(=O)O)c(C5CCCC5)c4)c3c2)c1 [SGC-CAMKK2-1 (YL-36)]
- remaining binding at 1 µM (PRKR): 100%
- remaining binding at 1 µM (PIP5K2B): 100%
- remaining binding at 1 µM (IKK-alpha): 100%
- remaining binding at 1 µM (CAMK2B): 86%
- remaining binding at 1 µM (GSK3A): 92%
- remaining binding at 1 µM (PFPK5(P.falciparum)): 100%
- remaining binding at 1 µM (PIK3CA(Q546K)): 100%
- remaining binding at 1 µM (PAK7): 100%
- remaining binding at 1 µM (MST3): 100%
- remaining binding at 1 µM (IRAK1): 100%
- remaining binding at 1 µM (MYLK4): 100%
- remaining binding at 1 µM (PDGFRA): 100%
- remaining binding at 1 µM (MARK3): 100%
- remaining binding at 1 µM (EPHA4): 90%
- remaining binding at 1 µM (RIPK1): 93%
- remaining binding at 1 µM (ADCK4): 100%
- remaining binding at 1 µM (STK33): 98%
- remaining binding at 1 µM (PRKD3): 77%
- remaining binding at 1 µM (BMPR1A): 100%
- remaining binding at 1 µM (ABL1-phosphorylated): 98%
- remaining binding at 1 µM (CAMK2A): 95%
- remaining binding at 1 µM (PAK3): 100%

SMILES: O=C(O)c1ccc(-c2coc3ncc(-c4ccccc4)cc23)cc1Cl [SGC-CAMKK2-1N (UNC-YL-83)]
- remaining binding at 1 µM (ANKK1): 78%
- remaining binding at 1 µM (ABL1-nonphosphorylated): 66%
- remaining binding at 1 µM (MET(Y1235D)): 91%
- remaining binding at 1 µM (IGF1R): 100%
- remaining binding at 1 µM (BIKE): 94%
- remaining binding at 1 µM (CDK4): 82%
- remaining binding at 1 µM (MAK): 83%
- remaining binding at 1 µM (MKNK2): 67%
- remaining binding at 1 µM (VPS34): 44%
- remaining binding at 1 µM (ALK(L1196M)): 92%
